Measurements from the NIST ThermoML archive (doi:10.1016/j.jct.2009.05.013).
Where “and” joins values, the source holds several entries; their conditions need not be identical. Equal entries are not always repeated.

Conditions: Crystal, Calculated from knudsen effusion weight loss

Nc1cc(Cl)c(Cl)cc1[N+](=O)[O-] [4,5-dichloro-2-nitrobenzenamine]
Conditions	vapor or sublimation pressure
351.32 K	0.000199 kPa and 0.000196 kPa and 0.000193 kPa
353.21 K	0.000251 kPa and 0.000243 kPa and 0.000239 kPa
355.25 K	0.000288 kPa and 0.000286 kPa
357.24 K	0.000364 kPa and 0.000355 kPa
359.42 K	0.000463 kPa and 0.000453 kPa and 0.000452 kPa
361.45 K	0.000565 kPa and 0.000558 kPa and 0.000552 kPa
363.23 K	0.000665 kPa and 0.000673 kPa and 0.000675 kPa
365.49 K	0.000831 kPa and 0.000843 kPa and 0.000807 kPa
367.38 K	0.000995 kPa and 0.000996 kPa and 0.000976 kPa
